Data as given in patent publication US20050154042A1, “N-alkyl pyrroles as HMG-CoA reductase inhibitors” (priority 2003, published 2005).
Structures can show the parent of a compound that is named as a salt.

SMILES	melting point
CC(C)n1c(CC[C@@H](O)C[C@@H](O)CC(=O)O)c(-c2ccc(F)cc2)c(-c2ccc(F)cc2)c1C(=O)Nc1ccc(S(N)(=O)=O)cc1 (as salt: sodium) [Example 11, (3R,5R)-7-[3,4-Bis-(4-fluoro-phenyl)-1-isopropyl-5-(4-sulfamoyl-phenylcarbamoyl)-1H-pyrrol-2-yl]-3,5-dihydroxy-heptanoic Acid Sodium Salt]	261 to 263 °C
COc1ccc([C@@H](C)NC(=O)c2c(-c3ccc(F)cc3)c(-c3ccc(F)cc3)c(/C=C/[C@@H](O)C[C@@H](O)CC(=O)[O-])n2C(C)C)cc1.[Na+] [Example 155, (3R,5S)-7-{3,4-Bis-(4-fluoro-phenyl)-1-isopropyl-5-[(R)-1-(4-methoxy-phenyl)-ethylcarbamoyl]-1H-pyrrol-2-yl)-3,5-dihydroxy-hept-6-enoic Acid Sodium Salt]	255 to 257 °C
COc1cccc(NC(=O)c2c(-c3ccc(F)cc3)c(-c3ccc(F)cc3)c(/C=C/[C@@H](O)C[C@@H](O)CC(=O)[O-])n2C(C)C)c1.[Na+] [Example 137, (3R,5 S)-7-[3,4-Bis-(4-fluoro-phenyl)-1-isopropyl-5-(3-methoxy-phenylcarbamoyl)-1H-pyrrol-2-yl]-3,5-dihydroxy-hept-6-enoic Acid Sodium Salt]	225 to 227 °C
CC(C)n1c(/C=C/[C@@H](O)C[C@@H](O)CC(=O)[O-])c(-c2ccc(F)cc2)c(-c2ccc(F)cc2)c1C(=O)Nc1ccccc1OCc1ccccc1.[Na+] [Example 131, (3R,5S)-7-[5-(2-Benzyloxy-phenylcarbamoyl)-3,4-bis-(4-fluoro-phenyl)-1-isopropyl-1H-pyrrol-2-yl]-3,5-dihydroxy-hept-6-enoic Acid Sodium Salt]	228 to 229 °C
CCc1cccc(NC(=O)c2c(-c3ccc(F)cc3)c(-c3ccc(F)cc3)c(/C=C/[C@@H](O)C[C@@H](O)CC(=O)[O-])n2C(C)C)c1.[Na+] [Example 141, (3R,5S)-7-[5-(3-Ethyl-phenylcarbamoyl)-3,4-bis-(4-fluoro-phenyl)-1-isopropyl-1H-pyrrol-2-yl]-3,5-dihydroxy-hept-6-enoic Acid Sodium Salt]	229 to 230 °C
CC(C)n1c(/C=C/[C@@H](O)C[C@@H](O)CC(=O)[O-])c(-c2ccc(F)cc2)c(-c2ccc(F)cc2)c1C(=O)Nc1cccc(C(=O)N(C)C)c1.[Na+] [Example 68, trans-(3R,5S)-7-[5-(3-dimethylcarbamoyl-phenylcarbamoyl)-3,4-bis-(4-fluoro-phenyl)-1-isopropyl-1H-pyrrol-yl]-3,5-dihydroxy-hept-6-enoate Sodium Salt]	210 to 214 °C
CC(C)n1c(/C=C/[C@@H](O)C[C@@H](O)CC(=O)[O-])c(-c2ccc(F)cc2)c(-c2ccccc2)c1C(=O)Nc1cccc(C#N)c1.[Na+] [Example 143, (3R,5S)-7-[5-(3-Cyano-phenylcarbamoyl)-3-(4-fluoro-phenyl)-1-isopropyl-4-phenyl-1H-pyrrol-2-yl]-3,5-dihydroxy-hept-6-enoic Acid Sodium Salt]	210 to 212 °C
CC(C)n1c(CC[C@@H]2C[C@@H](O)CC(=O)O2)c(-c2ccc(F)cc2)c(-c2ccccc2)c1C(=O)Nc1ccc(C(=O)O)cn1 [Example 124, (2R,4R)-6-({4-(4-Fluoro-phenyl)-5-[2-(4-hydroxy-6-oxo-tetrahydro-pyran-2-yl)-ethyl]-1-isopropyl-3-phenyl-1H-pyrrole-2-carbonyl}-amino)-nicotinic Acid]	172 to 174 °C (dec.)
CC(C)n1c(/C=C/[C@@H](O)C[C@@H](O)CC(=O)[O-])c(-c2ccc(F)cc2)c(-c2ccccc2)c1C(=O)Nc1cccc(S(N)(=O)=O)c1.[Na+] [Example 126, (3R,5S)-7-[3-(4-Fluoro-phenyl)-1-isopropyl-4-phenyl-5-(3-sulfamoyl-phenylcarbamoyl)-1H-pyrrol-2-yl]-3,5-dihydroxy-hept-6-enoic Acid Sodium Salt]	225 to 227 °C
CC(C)n1c(CC[C@@H](O)C[C@@H](O)CC(=O)O)c(-c2ccc(F)cc2)c(-c2ccc(F)cc2)c1C(=O)Nc1ccc(CC(N)=O)cc1 (as salt: sodium) [Example 13]	248 to 250 °C

Continued, values first:

melting point	SMILES
193 to 195 °C	CC(C)n1c(/C=C/[C@@H](O)C[C@@H](O)CC(=O)[O-])c(-c2ccc(F)cc2)c(-c2ccccc2)c1C(=O)NCc1ccc(C#N)cc1.[Na+] [Example 145, (3R,5S)-7-[5-(4-Cyano-benzylcarbamoyl)-3-(4-fluoro-phenyl)-1-isopropyl-4-phenyl-1H-pyrrol-2-yl]-3,5-dihydroxy-hept-6-enoic Acid Sodium Salt]
156 to 205 °C	CC(C)n1c(CC[C@@H](O)C[C@@H](O)CC(=O)[O-])c(-c2ccc(F)cc2)c(-c2ccccc2)c1C(=O)Nc1cccc(C(=O)N(C)C)c1.[Na+] [Example 108, (3R,5R)-7-[5-(3-Dimethylcarbamoyl-phenylcarbamoyl)-3-(4-fluoro-phenyl)-1-isopropyl-4-phenyl-1H-pyrrol-2-yl]-3,5-dihydroxy-heptanoic Acid, Sodium Salt]
188 to 190 °C (dec.)	COC(=O)c1ccc(NC(=O)c2c(-c3ccccc3)c(-c3ccc(F)cc3)c(CC[C@@H](O)C[C@@H](O)CC(=O)[O-])n2C(C)C)nc1.[Na+] [Example 118, (3R,5R)-6-{[5-(6-Carboxy-3,5-dihydroxy-hexyl)-4-(4-fluoro-phenyl)-1-isopropyl-3-phenyl-1H-pyrrole-2-carbonyl]-amino}-nicotinic Acid Methyl Ester Sodium Salt]
227 to 229 °C (dec.)	CC(C)n1c(CC[C@@H](O)C[C@@H](O)CC(=O)[O-])c(-c2ccc(F)cc2)c(-c2ccccc2)c1C(=O)N[C@@H](C)c1ccccc1.[Na+] [Example 115, (3R,5R)-7-[3-(4-Fluoro-phenyl)-1-isopropyl-4-phenyl-5-((S)-1-phenyl-ethylcarbamoyl)-1H-pyrrol-2-yl]-3,5-dihydroxy-heptanoic Acid Sodium Salt]
240 to 242 °C	CC(C)n1c(CCC(O)C[C@@H](O)CC(=O)O)c(-c2ccc(F)cc2)c(-c2ccccc2)c1C(=O)Nc1ccc(F)cc1 (stereo partly drawn) (as salt: sodium) [Example 8, (3R)-7-[3-(4-Fluoro-phenyl)-5-(4-fluoro-phenylcarbamoyl)-1-isopropyl-4-phenyl-1H-pyrrol-2-yl]-3,5-dihydroxy-heptanoic Acid Sodium Salt]
226 to 228 °C (dec.)	CC(C)n1c(CC[C@@H](O)C[C@@H](O)CC(=O)[O-])c(-c2ccc(F)cc2)c(-c2ccccc2)c1C(=O)Nc1ccccn1.[Na+] [Example 119, (3R,5R)-7-[3-(4-Fluoro-phenyl)-1-isopropyl-4-phenyl-5-(pyridin-2-ylcarbamoyl)-1 H-pyrrol-2-yl]-3,5-dihydroxy-heptanoic Acid Sodium Salt]
227 to 229 °C	CC(C)n1c(CC[C@@H](O)C[C@@H](O)CC(=O)[O-])c(-c2ccc(F)cc2)c(-c2ccccc2)c1C(=O)Nc1cccc(S(N)(=O)=O)c1.[Na+] [Example 125, (3R,5R)-7-[3-(4-Fluoro-phenyl)-1-isopropyl-4-phenyl-5-(3-sulfamoyl-phenylcarbamoyl)-1H-pyrrol-2-yl]-3,5-dihydroxy-heptanoic Acid Sodium Salt]
215 to 217 °C	CC(C)n1c(CC[C@@H](O)C[C@@H](O)CC(=O)[O-])c(-c2ccc(F)cc2)c(-c2ccc(F)cc2)c1C(=O)Nc1ccc(OCc2ccccc2)cc1.[Na+] [Example 127]
240 to 245 °C	CC(C)n1c(CC[C@@H](O)C[C@@H](O)CC(=O)[O-])c(-c2ccc(F)cc2)c(-c2ccccc2)c1C(=O)NCc1cccc(C(=O)[O-])c1.[Na+].[Na+] [Example 163, (3R,5R)-3-({[5-(6-Carboxy-3,5-dihydroxy-hexyl)-4-(4-fluoro-phenyl)-1-isopropyl-3-phenyl-1H-pyrrole-2-carbonyl]-amino}-methyl)-benzoic Acid Disodium Salt]
189 to 193 °C	CC(N)=CC(=O)CNC(=O)c1c(-c2ccccc2)c(-c2ccc(F)cc2)c(CC[C@@H](O)C[C@@H](O)CC(=O)[O-])n1C(C)C.[Na+] [Example 113, (3R,5R)-7-[5-(4-Amino-2-oxo-pent-3-enylcarbamoyl)-3-(4-fluoro-phenyl)-1-isopropyl-4-phenyl-1H-pyrrol-2-yl]-3,5-dihydroxy-heptanoic Acid, Sodium Salt]
212 to 214 °C	CC(C)n1c(CC[C@@H](O)C[C@@H](O)CC(=O)[O-])c(-c2ccc(F)cc2)c(-c2ccccc2)c1C(N)=O.[Na+] [Example 161, (3R,5R)-7-[5-Carbamoyl-3-(4-fluoro-phenyl)-1-isopropyl-4-phenyl-1H-pyrrol-2-yl]-3,5-dihydroxy-heptanoic Acid Sodium Salt]
203 to 205 °C	CCNC(=O)c1c(-c2ccccc2)c(-c2ccc(F)cc2)c(CC[C@@H](O)C[C@@H](O)CC(=O)[O-])n1C(C)C.[Na+] [Example 158, (3R,5R)-7-[5-Ethylcarbamoyl-3-(4-fluoro-phenyl)-1-isopropyl-4-phenyl-1H-pyrrol-2-yl]-3,5-dihydroxy-heptanoic Acid Sodium Salt]
240 to 242 °C	CC(C)n1c(CCC(O)C[C@@H](O)CC(=O)[O-])c(-c2ccc(F)cc2)c(-c2ccccc2)c1C(=O)Nc1ccccc1.[Na+] (stereo partly drawn) [Example 3, (3R)-7-[3-(4-Fluoro-phenyl)-1-isopropyl-4-phenyl-5-phenylcarbamoyl-1H-pyrrol-2-yl]-3,5-dihydroxy-heptanoic Acid Sodium Salt]
178 to 181 °C (dec.)	COC(=O)c1ccc(NC(=O)c2c(-c3ccc(F)cc3)c(-c3ccc(F)cc3)c(CC[C@@H](O)C[C@@H](O)CC(=O)[O-])n2C(C)C)nc1.[Na+] [Example 121, (3R,5R)-6-{[5-(6-Carboxy-3,5-dihydroxy-hexyl)-3,4-bis-(4-fluoro-phenyl)-1-isopropyl-1H-pyrrole-2-carbonyl]-amino}-nicotinic Acid Methyl Ester Sodium Salt]
220 to 222 °C	CC(C)n1c(CC[C@@H](O)C[C@@H](O)CC(=O)[O-])c(-c2ccc(F)cc2)c(-c2ccc(F)cc2)c1C(=O)Nc1cccc(O)c1.[Na+] [Example 135, (3R,5R)-7-[3,4-Bis-(4-fluoro-phenyl)-5-(3-hydroxy-phenylcarbamoyl)-1-isopropyl-1H-pyrrol-2-yl]-3,5-dihydroxy-heptanoic Acid Sodium Salt]
